From patent US12329745B2, “Methods and compositions for treating glucocorticoid excess” (Sparrow Pharmaceuticals, Inc., priority 2022, dated 2025)
Read-outs that look alike come from different tables or passages of the source.

Assays:
C57BL/6 male mice = test: Mitigation of corticosterone (CORT) adverse effects in mouse; assay type: in vivo; set-up: food consumption, group Mean: unit not given here
Procedure: A control group received no CORT or SPI-62. Body weight was assessed daily and food consumption twice weekly. Whole body muscle and fat amounts were measured at Days 0, 14, and 28 using an EchoMRI-130H body composition analyzer. Blood samples for fasting glucose and insulin were obtained at Days 1 (pre-dose), 15, 29, and 35. An open field test was conducted on Day 22. A grip strength test was performed on Day 28. After sacrifice on Day 36, gonadal, subcutaneous, retroperitoneal, and mesenteric fat, quadriceps, and tibialis anterior were dissected and weighed, and skin was formalin fixed and paraffin embedded.

[1] = Human plasma pharmacokinetics of SPI-62; assay type: in vivo; details: for Cmax: human, plasma, oral
Procedure: The single- and multiple-dose pharmacokinetics of SPI-62 were well-characterized by a two-compartment TMDD population pharmacokinetics model with 3 transit absorption compartments and an estimated target capacity of ˜2.5 mg of SPI-62 which comports well with the dose range in which pharmacokinetic nonlinearity is prominent.

HSD-1 = HSD-1 (Homo sapiens, UniProt P28845); test: Target-mediated drug disposition (TMDD) population PK / PK-PD model
Sequence of HSD-1 (P28845 whole entry): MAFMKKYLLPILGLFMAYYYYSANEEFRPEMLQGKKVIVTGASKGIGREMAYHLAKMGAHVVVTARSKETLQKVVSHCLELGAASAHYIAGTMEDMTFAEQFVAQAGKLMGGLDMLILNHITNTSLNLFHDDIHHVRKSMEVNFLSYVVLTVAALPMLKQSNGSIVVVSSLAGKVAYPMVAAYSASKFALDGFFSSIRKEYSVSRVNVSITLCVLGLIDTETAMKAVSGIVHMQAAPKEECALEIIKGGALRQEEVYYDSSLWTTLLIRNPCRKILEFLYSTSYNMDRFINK

Cn1c(-c2ccc(C(N)=O)cc2F)nnc1C(C)(C)Oc1c(F)cc(Cl)cc1F [SPI-62, 4-(5-(2-(4-chloro-2,6-difluorophenoxy)propan-2-yl)-4-methyl-4H-1,2,4-triazol-3-yl)-3-fluorobenzamide]
food consumption, group Mean (C57BL/6 male mice; 1 mpk QD + CORT, Day 15): 3.04 | food consumption, group Mean (C57BL/6 male mice; 1 mpk QD + CORT, Day 18): 2.91 | food consumption, group Mean (C57BL/6 male mice; 1 mpk QD + CORT, Day 22): 3.23 | food consumption, group Mean (C57BL/6 male mice; 1 mpk QD + CORT, Day 25): 3.74 | body weight, group Mean (C57BL/6 male mice; 1 mpk QD + CORT, Day 29): 23.2 g | food consumption, group Mean (C57BL/6 male mice; 1 mpk QD + CORT, Day 29): 2.90 | food consumption, group Mean (C57BL/6 male mice; 1 mpk QD + CORT, Day 32): 2.77 | body weight, group Mean (C57BL/6 male mice; 1 mpk QD + CORT, Day 35): 23.8 g | food consumption, group Mean (C57BL/6 male mice; 1 mpk QD + CORT, Day 36): 3.13 | body weight, group Mean (C57BL/6 male mice; 10 mpk BID + CORT, Baseline): 22.1 g | food consumption, group Mean (C57BL/6 male mice; 10 mpk BID + CORT, Day 4): 3.36 | food consumption, group Mean (C57BL/6 male mice; 10 mpk BID + CORT, Day 8): 2.88 | food consumption, group Mean (C57BL/6 male mice; 10 mpk BID + CORT, Day 11): 2.92 | body weight, group Mean (C57BL/6 male mice; 10 mpk BID + CORT, Day 15): 21.5 g | food consumption, group Mean (C57BL/6 male mice; 10 mpk BID + CORT, Day 15): 2.74 | food consumption, group Mean (C57BL/6 male mice; 10 mpk BID + CORT, Day 18): 3.36 | food consumption, group Mean (C57BL/6 male mice; 10 mpk BID + CORT, Day 22): 2.89 | food consumption, group Mean (C57BL/6 male mice; 10 mpk BID + CORT, Day 25): 3.13 | body weight, group Mean (C57BL/6 male mice; 10 mpk BID + CORT, Day 29): 21.7 g | food consumption, group Mean (C57BL/6 male mice; 10 mpk BID + CORT, Day 29): 2.79 | food consumption, group Mean (C57BL/6 male mice; 10 mpk BID + CORT, Day 32): 3.27 | body weight, group Mean (C57BL/6 male mice; 10 mpk BID + CORT, Day 35): 21.8 g | food consumption, group Mean (C57BL/6 male mice; 10 mpk BID + CORT, Day 36): 2.83 | body weight, group Mean (C57BL/6 male mice; 10 mpk QD + CORT, Baseline): 22 g | food consumption, group Mean (C57BL/6 male mice; 10 mpk QD + CORT, Day 4): 3.37 | food consumption, group Mean (C57BL/6 male mice; 10 mpk QD + CORT, Day 8): 2.98 | food consumption, group Mean (C57BL/6 male mice; 10 mpk QD + CORT, Day 11): 3.11 | body weight, group Mean (C57BL/6 male mice; 10 mpk QD + CORT, Day 15): 21.4 g | food consumption, group Mean (C57BL/6 male mice; 10 mpk QD + CORT, Day 15): 2.91 | food consumption, group Mean (C57BL/6 male mice; 10 mpk QD + CORT, Day 18): 3.08 | food consumption, group Mean (C57BL/6 male mice; 10 mpk QD + CORT, Day 22): 3.15 | food consumption, group Mean (C57BL/6 male mice; 10 mpk QD + CORT, Day 25): 3.50 | body weight, group Mean (C57BL/6 male mice; 10 mpk QD + CORT, Day 29): 22.2 g | food consumption, group Mean (C57BL/6 male mice; 10 mpk QD + CORT, Day 29): 2.99 | food consumption, group Mean (C57BL/6 male mice; 10 mpk QD + CORT, Day 32): 3.00 | body weight, group Mean (C57BL/6 male mice; 10 mpk QD + CORT, Day 35): 22.8 g | food consumption, group Mean (C57BL/6 male mice; 10 mpk QD + CORT, Day 36): 3.24 | CORT effects on dermal thickness and structure (C57BL/6 male mice; 35 days, FIG. 12): less prominent | effect in the open field test (C57BL/6 male mice; Day 22): No effect | CORT adverse effect of grip strength reduction (C57BL/6 male mice; Day 28): prevented | unbound concentration corresponding to Cmax ([1]; 0.2 mg daily for 14 days): < 0.25 nM | plasma levels after 14 days of dosing, dose proportionality ([1]; doses of 0.2 to 50 mg): approximately dose-proportional | Cmax ([1]; 0.2 mg, 0.2 mg daily for 14 days, last dosing day, read-out: mean maximum plasma drug concentration (Cmax)): < 1 ng/mL | Cmax ([1]; 1 mg, single dose 1 mg, read-out: mean Cmax): < 0.05 ng/mL | Cmax ([1]; multiple doses 0.2 to 50 mg, read-out: Cmax means): 1 to 835 ng/mL | Cmax ([1]; single doses of 6 to 60 mg, read-out: Cmax means): 28 to 595 ng/mL | plasma drug levels (all below the LLOQ) ([1]; single 1 mg dose): < 0.1 ng/mL | unbound concentration corresponding to Cmax ([1]; single dose 1 mg): < 0.012 nM | plasma exposures after single doses, dose proportionality ([1]; single doses, 0.7 to 3 mg much lower dose-normalized levels): substantial non-linearity | estimated target capacity ([1]; two-compartment TMDD population pharmacokinetics model): ~2.5 mg | IC50 (HSD-1): 0.0234 nM | Kd (HSD-1): 0.183 nM | estimated total target amount (RTOT+RTA) as SPI-62 (HSD-1; both, human, in vivo): 3.6 mg | Kd lower than the Ki (HSD-1; in vivo): approximately 60 fold | estimated Kd lower than Ki for purified human HSD-1 (HSD-1; in vivo): 29 fold | estimated Kd lower than measured Ki for human HSD-1 expressed in CHO cells (HSD-1; in vivo): 69 fold | Hill coefficient (HSD-1; model parameter estimate): 1.42 | association rate constant (kon) (HSD-1; model parameter estimate): 400000 M⁻¹ s⁻¹ | total target amount in the adipose compartment (RTA) (HSD-1; model parameter estimate): 671 nM | koff (HSD-1; read-out: dissociation rate constant (koff)): 7.33e-05 s⁻¹
